In ChEMBL document CHEMBL4014279, “Synthesis of novel pyrazolo[3,4-b]quinolinyl acetamide analogs, their evaluation for antimicrobial and anticancer activities, validation by molecular modeling and CoMFA analysis” (Eur J Med Chem, 2017):
In brackets after ≈: the same amount, converted by molar mass. Activity calls are given as the source filed them. No cut-off for these calls is given here.

Assays:
Micrococcus luteus = assay: Antibacterial activity against Micrococcus luteus MTCC 2470 after 24 hrs by well diffusion method; assay type: functional; conditions: MTCC 2470, 24 h
HepG2 [1] = assay: Cytotoxicity against human HepG2 cells after 24 hrs by MTT assay; assay type: functional, cell-based; conditions: HepG2, 24 h
HeLa = assay: Cytotoxicity against human HeLa cells after 24 hrs by MTT assay; assay type: functional, cell-based
Staphylococcus aureus [2] = assay: Antibacterial activity against Staphylococcus aureus MLS16 MTCC 2940 after 24 hrs by well diffusion method; assay type: functional; conditions: MLS16 MTCC 2940, 24 h
Bacillus subtilis = assay: Antibacterial activity against Bacillus subtilis MTCC 121 after 24 hrs by well diffusion method; assay type: functional; conditions: MTCC 121, 24 h
COLO 205 = assay: Cytotoxicity against human COLO205 cells after 24 hrs by MTT assay; assay type: functional, cell-based; conditions: COLO 205, 24 h
Pseudomonas aeruginosa = assay: Antibacterial activity against Pseudomonas aeruginosa MTCC 2453 after 24 hrs by well diffusion method; assay type: functional; conditions: MTCC 2453, 24 h
A549 [3] = assay: Cytotoxicity against human A549 cells after 24 hrs by MTT assay; assay type: functional, cell-based; conditions: A549, 24 h
Escherichia coli = assay: Antibacterial activity against Escherichia coli MTCC 739 after 24 hrs by well diffusion method; assay type: functional; conditions: MTCC 739, 24 h
Raoultella planticola = assay: Antibacterial activity against Klebsiella planticola MTCC 530 after 24 hrs by well diffusion method; assay type: functional; conditions: MTCC 530, 24 h
Staphylococcus aureus [4] = assay: Antibacterial activity against Staphylococcus aureus MTCC 96 after 24 hrs by well diffusion method; assay type: functional; conditions: MTCC 96, 24 h
A549 [5] = assay: Cytotoxicity against human A549 cells at >100 uM after 24 hrs by MTT assay; assay type: functional, cell-based
HepG2 [6] = assay: Cytotoxicity against human HepG2 cells at >100 uM after 24 hrs by MTT assay; assay type: functional, cell-based

Row | SMILES | MIC (Micrococcus luteus) [µg/mL] | IC50 (HepG2 [1]) [µM] | IC50 (HeLa) [µM] | MIC (Staphylococcus aureus [2]) [µg/mL] | MIC (Bacillus subtilis) [µg/mL] | IC50 (COLO 205) [µM] | MIC (Pseudomonas aeruginosa) [µg/mL] | IC50 (A549 [3]) [µM] | MIC (Escherichia coli) [µg/mL] | MIC (Raoultella planticola) [µg/mL] | MIC (Staphylococcus aureus [4]) [µg/mL] | Activity (A549 [5]) | Activity (HepG2 [6])
1 | Cc1c2ccccc2nc2c1c(C(F)(F)F)nn2CC(=O)N1CCCCC1 | 7.8 to 125 (≈ 20.7 to 332 µM) | 36.6 | 33.9 | 7.8 to 125 (≈ 20.7 to 332 µM) | 7.8 to 125 (≈ 20.7 to 332 µM) | 25.4 | 7.8 to 125 (≈ 20.7 to 332 µM) | 32.5 | 7.8 to 125 (≈ 20.7 to 332 µM) | 7.8 to 125 (≈ 20.7 to 332 µM) | 7.8 to 125 (≈ 20.7 to 332 µM) | – | –
2 | Cc1nn(CC(=O)N2CCCCC2)c2nc3ccccc3c(C)c12 | 7.8 to 125 (≈ 24.2 to 388 µM) | 15.5 | 17 | 7.8 to 125 (≈ 24.2 to 388 µM) | 7.8 to 125 (≈ 24.2 to 388 µM) | 11.9 | 7.8 to 125 (≈ 24.2 to 388 µM) | 20.5 | 7.8 to 125 (≈ 24.2 to 388 µM) | 7.8 to 125 (≈ 24.2 to 388 µM) | 7.8 to 125 (≈ 24.2 to 388 µM) | – | –
3 | CNC(=O)Cn1nc(C(F)(F)F)c2c(C)c3ccccc3nc21 | 7.8 to 125 (≈ 24.2 to 388 µM) | 18.9 | 17.2 | 7.8 to 125 (≈ 24.2 to 388 µM) | 7.8 to 125 (≈ 24.2 to 388 µM) | 12.8 | 7.8 to 125 (≈ 24.2 to 388 µM) | 11.3 | 7.8 to 125 (≈ 24.2 to 388 µM) | 7.8 to 125 (≈ 24.2 to 388 µM) | 7.8 to 125 (≈ 24.2 to 388 µM) | – | –
4 | Cc1c2ccccc2nc2c1c(C(F)(F)F)nn2CC(=O)Nc1ccc([N+](=O)[O-])cc1 | 7.8 to 125 (≈ 18.2 to 291 µM) | – | 38.9 | 7.8 to 125 (≈ 18.2 to 291 µM) | 7.8 to 125 (≈ 18.2 to 291 µM) | 36.2 | 7.8 to 125 (≈ 18.2 to 291 µM) | – | 7.8 to 125 (≈ 18.2 to 291 µM) | 7.8 to 125 (≈ 18.2 to 291 µM) | 7.8 to 125 (≈ 18.2 to 291 µM) | inactive | inactive
5 | COc1ccc(NC(=O)Cn2nc(C)c3c(C)c4ccccc4nc32)cc1 | 7.8 to 125 (≈ 21.6 to 347 µM) | 22.2 | 20.4 | 7.8 to 125 (≈ 21.6 to 347 µM) | 7.8 to 125 (≈ 21.6 to 347 µM) | 18.9 | 7.8 to 125 (≈ 21.6 to 347 µM) | 25.6 | 7.8 to 125 (≈ 21.6 to 347 µM) | 7.8 to 125 (≈ 21.6 to 347 µM) | 7.8 to 125 (≈ 21.6 to 347 µM) | – | –
6 | CCCNC(=O)Cn1nc(C(F)(F)F)c2c(-c3ccccc3)c3ccccc3nc21 | 7.8 to 125 (≈ 18.9 to 303 µM) | 23.4 | 23.7 | 7.8 to 125 (≈ 18.9 to 303 µM) | 7.8 to 125 (≈ 18.9 to 303 µM) | 22.1 | 7.8 to 125 (≈ 18.9 to 303 µM) | 25.6 | 7.8 to 125 (≈ 18.9 to 303 µM) | 7.8 to 125 (≈ 18.9 to 303 µM) | 7.8 to 125 (≈ 18.9 to 303 µM) | – | –
7 | Cc1c2ccccc2nc2c1c(C(F)(F)F)nn2CC(=O)N1CCN(CCO)CC1 | 7.8 to 125 (≈ 18.5 to 297 µM) | 30.2 | 28.2 | 7.8 to 125 (≈ 18.5 to 297 µM) | 7.8 to 125 (≈ 18.5 to 297 µM) | 19.8 | 7.8 to 125 (≈ 18.5 to 297 µM) | 31.1 | 7.8 to 125 (≈ 18.5 to 297 µM) | 7.8 to 125 (≈ 18.5 to 297 µM) | 7.8 to 125 (≈ 18.5 to 297 µM) | – | –
